The record followed here is patent US20250090510A1, “eIF4G1-eIF1 INHIBITORS AND USE THEREOF” (YEDA RESEARCH AND DEVELOPMENT CO. LTD., priority 2022, published 2025).

This assay concerns HEK293T cells. Description: Ribo-seq and TI-seq translation efficiency analysis. It counts as cell-based, human. The settings on record: i14G1-10 20 μM, i14G1-12 10 μM; 3 h. The procedure:
FIGS. 4A-L: The effect eIF1-eIF4G1 inhibition by i14G1-10 or i14G1-12 on global translation is linked to start codon stringency. (4A) HEK293T cells were treated with DMSO, i14G1-10 (20 μM), and […] (10 μM) for 3 h and then ribosome foot printing libraries were prepared, sequenced and analyzed as described in the scheme. The presented graphs show meta-gene analysis of the distribution of normalized reads in the coding region (CDS) and 5′UTR of all analyzed genes in DMSO (black), i14G1-10 (blue), and i14G1-12 (red). (4B) Summary of the number of genes whose ribosomal occupancy was affected (fold change, […]) or unaffected in coding regions (CDS) (left) and 5′UTR (right) in i14G1-10 or i14G1-12 samples. […] (4E) Analysis of the nucleotide context of the annotated start codon of i14G1-10 and i14G1-12 differentially translated mRNAs using the STREME motif discovery algorithm. (4F) The translation efficiency of eIF1 in DMSO, i14G1-10 and i14G1-12 samples calculated from the Ribo-seq data. The weak AUG context of eIF1 is shown above. […] (4I) HEK293T cells were transfected with a firefly luciferase reporter gene driven by either by AUG or near cognate start codon, i.e., ACG, CUG, GUG, and UUG. The Renilla luciferase reporter gene was also co-transfected and served as a normalizing control. The near cognate start codon activities in DMSO control and i14G1-10 and i14G1-12 treated cells are presented as a percentage of AUG activity. The data are shown as mean±SEM, n=5. the asterisks denote statistically significant difference compared to DMSO, according to Student's t-tests (one-tailed, paired). *p<0.05; **p<0.01. (4J) Scatter plots showing the translation efficiencies correlations (R2 >0.9) of all analyzed genes between the two independent replicate experiments with DMSO (vehicle control) (top), i14G1-10 (middle), and i14G1-12 (bottom). (4K) Scatter plots showing the translation efficiencies correlations between 5′UTR and CDS (Pearson's r >0.5) of all analyzed genes of two independent replicate experiments with i14G1-10 (left) and i14G1-12 (right).
Ribo-seq and TI-seq. HEK293T cells were grown in 10 cm culture dish until 80% confluence, and treated with DMSO, i14G1-10 ([…]), and i14G1-12 (10 μM). After 3 h, for TI-seq, cells were treated with 2 μg/ml harringtonine (Hrr) for 2 minutes followed by the addition of 100 μg/ml cycloheximide (CHX) for 5 minutes. For Ribo-seq cells were treated with 100 μg/ml cycloheximide (CHX) for 5 minutes. Thereafter, cells were lysed in polysome buffer. For both TI-seq and Ribo-seq, ribosome fractions were isolated using sucrose density centrifugation followed by Rnase I digestion. The total RNA was isolated using tri-reagent and used for high-throughput library preparation as described (Ingolia et al. 2012). The libraries were sequenced on the HiSeq2500 High-Output instrument (Illumina) for SR-60.
RNA-seq libraries. Total RNA was isolated from the lysates used for TI-seq and Ribo-seq, using Bio Tri RNA reagent. Total RNA was then cleaned up using Oligo d(T)25 Magnetic Beads (NEB 514195) to isolate mRNA. RNA-seq libraries prepared using a derivation of MARS-seq, produce expression libraries with two replicates of each treatment. ˜25 ng RNA was taken for first Reverse transcription reaction using Illumina barcoded RT1 primer. Resultant barcoded cDNA samples were subsequently pooled according to Ct values of Housekeeping gene (GAPDH) (Quality control 1). Pooled cDNA was treated with Exonuclease I to remove excess primers followed by Second strand synthesis using NEB SSS module enzyme mix. After that, in vitro transcription was performed using NEB T7 RNA Pol mix to generate RNA which was fragmented and ligated to an adaptor consisting RD2 using T4 RNA ligase I (NEB) followed by a second Reverse transcription reaction. The library was amplified using Kappa Hifi ready mix. The RNA libraries were sequenced using a high-throughput 75 bp kit (Illumina FC404-2005) on NEXTseq 500 sequencer. […]

Molecules are shown by their SMILES.

As for `Cn1ccnc1S/C(=C/C=C(C#N)C#N)c1ccc(Cl)cc1` [i14G1-12], the “ATF4 main ORF translation” value was “upregulated”, the “number of genes with translational downregulation of CDS (≥1.7 fold)” value is on record as 874 genes, the “number of genes with translational upregulation of CDS” value amounted to 547 genes and the “number of genes with upregulated 5′UTR translation” value came to 1207 genes. Besides, the “translation efficiency of endogenous eIF1” value is “upregulated”.
On to `O=C(/C=C/Sc1ccc(C(F)(F)F)cn1)c1ccccc1` [i14G1-10], for which the “ATF4 main ORF translation” value is reported as “upregulated”, the “number of genes with translational downregulation of CDS (≥1.7 fold)” value is listed as 320 genes, the “number of genes with translational upregulation of CDS” value worked out at 255 genes and the “number of genes with upregulated 5′UTR translation” value was found to be 806 genes. The “translation efficiency of endogenous eIF1” value is “upregulated”.
